Values joined by “and” are separate entries in the source; they are usually repeats but may differ in a detail not shown here. Equal entries are not always repeated.
Legend:
Oryctolagus cuniculus [1] = test: Effect on Rabbits (Fed a Cholesterol-Free Casein Diet ) for plasma cholesterol at the dose of 10 mg/kg (post treatment); format: functional, organism-based; parameters: dose 10 mg/kg
Oryctolagus cuniculus [2] = test: Effect on Rabbits (Fed a Cholesterol-Free Casein Diet ) for plasma cholesterol at the dose of 1 mg/kg (pretreatment); format: functional, organism-based; parameters: dose 1 mg/kg
Rattus norvegicus [3] = test: Effect on the Cholesterol fed rats for HDL-C in rats at the dose of 0.01 mg/kg by Chroinc screen test; format: functional
Rattus norvegicus [4] = test: Effect on the Cholesterol fed rats for HDL-C in rats at the dose of 0.03 mg/kg by Chroinc screen test; format: functional; also: unit not given here
Rattus norvegicus [5] = test: Effect on the Cholesterol fed rats for HDL-C in rats at the dose of 0.3 mg/kg by Chroinc screen test; format: functional; also: unit not given here
Rattus norvegicus [6] = test: Effect on the Cholesterol fed rats for HDL-C in rats at the dose of 3 mg/kg by Chroinc screen test; format: functional
Rattus norvegicus [7] = test: Effect on the Cholesterol fed rats for total cholesterol level in rats at the dose of 0.01 mg/kg by Chroinc screen test; format: functional
Rattus norvegicus [8] = test: Effect on the Cholesterol fed rats for total cholesterol level in rats at the dose of 3 mg/kg by Chroinc screen test; format: functional
Rattus norvegicus [9] = test: Effect on the Cholesterol fed rats for non-HDL-C in rats at the dose of 0.001 mg/kg by Chroinc screen test; format: functional
Rattus norvegicus [10] = test: Effect on the Cholesterol fed rats for non-HDL-C in rats at the dose of 0.01 mg/kg by Chroinc screen test; format: functional; also: unit not given here
Rattus norvegicus [11] = test: Evaluated for %change in cholesterol fed rats for total cholesterol at the dose of 0.1 mg/kg determined by Chronic screen test; format: functional
Rattus norvegicus [12] = test: Evaluated for %change in cholesterol fed rats for non-HDL-C at the dose of 3 mg/kg determined by Chronic screen test; format: functional
Rattus norvegicus [13] = test: Evaluated for %change in cholesterol fed rats for total cholesterol at the dose of 0.01 mg/kg determined by Chronic screen test; format: functional
Rattus norvegicus [14] = test: Evaluated for %change in Normal, Chow fed rats for total cholesterol plasma level in rats at the dose of 3 mg/kg; format: functional
Rattus norvegicus [15] = test: Evaluated for %change in cholesterol fed rats at the dose of 0.3 mg/kg determined by Acute screen test; format: functional
Rattus norvegicus [16] = test: Evaluated for %change in cholesterol fed rats for HDL-C at the dose of 0.1 mg/kg determined by Chronic screen test; format: functional
Rattus norvegicus [17] = test: Evaluated for %change in cholesterol fed rats for HDL-C at the dose of 0.3 mg/kg determined by Chronic screen test; format: functional
Rattus norvegicus [18] = test: Effect on the Cholesterol fed rats for non-HDL-C in rats at the dose of 0.3 mg/kg by Chroinc screen test; format: functional; also: unit not given here
Rattus norvegicus [19] = test: Effect on the Cholesterol fed rats for non-HDL-C in rats at the dose of 3 mg/kg by Chroinc screen test; format: functional; also: unit not given here
Rattus norvegicus [20] = test: Evaluated for %change in cholesterol fed rats for total cholesterol at the dose of 0.03 mg/kg determined by Chronic screen test; format: functional
Rattus norvegicus [21] = test: Effect on the Normal, Chow fed rats for total cholesterol plasma level in rats at the dose of 10 mg/kg; format: functional, organism-based; parameters: dose 10 mg/kg
Rattus norvegicus [22] = test: Effect on the plasma Cholesterol level in rats at the dose of 0.1 mg/kg by Acute screen test; format: functional, organism-based; parameters: dose 0.1 mg/kg
Rattus norvegicus [23] = test: Effect on the plasma cholesterol level in rats at the dose of 1 mg/kg by Acute screen test; format: functional, organism-based; parameters: dose 1 mg/kg
Rattus norvegicus [24] = test: Effect on the plasma cholesterol level in rats at the dose of 10 mg/kg by Acute screen test; format: functional, organism-based; parameters: dose 10 mg/kg
Oryctolagus cuniculus [25] = test: Effect on Rabbits (Fed a Cholesterol-Free Casein Diet ) for plasma cholesterol at the dose of 3 mg/kg (post treatment); format: functional, organism-based; parameters: dose 3 mg/kg
Rattus norvegicus [26] = test: Evaluated for %change in Normal, Chow fed for rats Plasma total triglyceride plasma level in rats at the dose of 3 mg/kg; format: functional

## CC(C)c1cc(C(C)C)c(CC(=O)NS(=O)(=O)Oc2c(C(C)C)cccc2C(C)C)c(C(C)C)c1 [AVASIMIBE]
Oryctolagus cuniculus [1]
  Plasma cholesterol: 118 mg/dL
Oryctolagus cuniculus [2]
  Plasma cholesterol: 215 mg/dL
Rattus norvegicus [3]
  HDL-C: 15
Rattus norvegicus [4]
  HDL-C: 15
Rattus norvegicus [5]
  HDL-C: 20
Rattus norvegicus [6]
  HDL-C: 33
Rattus norvegicus [7]
  TC: 619
Rattus norvegicus [8]
  TC: 92
Rattus norvegicus [9]
  Non-HDL-C: 535
Rattus norvegicus [10]
  Non-HDL-C: 604
Rattus norvegicus [11]
  Change: -41% and -40%
Rattus norvegicus [12]
  Change: -72%
Rattus norvegicus [13]
  Change: 16%
Rattus norvegicus [14]
  Change: -16%
Rattus norvegicus [15]
  Change: -56%
Rattus norvegicus [16]
  Change: 17% and 7%
Rattus norvegicus [17]
  Change: 42%
Rattus norvegicus [18]
  Non-HDL-C: 70
Rattus norvegicus [19]
  Non-HDL-C: 59
Rattus norvegicus [20]
  Change: -38%
Rattus norvegicus [21]
  Plasma TC: 44 mg/dL
Rattus norvegicus [22]
  Plasma cholesterol: 124 mg/dL
Rattus norvegicus [23]
  Plasma cholesterol: 72 mg/dL
Rattus norvegicus [24]
  Plasma cholesterol: 51 mg/dL
Oryctolagus cuniculus [25]
  Plasma cholesterol: 171 mg/dL
Rattus norvegicus [26]
  Change: -44%

Reference: ChEMBL document CHEMBL1129601, “Inhibitors of acyl-CoA: cholesterol O-acyl transferase (ACAT) as hypocholesterolemic agents. CI-1011: an acyl sulfamate with unique cholesterol-lowering activity in animals fed noncholesterol-supplemented diets” (J Med Chem, 1996)
